From ChEMBL document CHEMBL4420077, “Synaptojanin-2 inhibitors and uses thereof” (2015)
Calls of active or inactive are those of the source. No cut-off for these calls is given here.

Tested on: MDA-MB-231
Conditions: Homo sapiens, 10 uM
Description: Inhibition of cell invasion of human MDA-MB-231 cells at 10 uM incubated for 96 hrs by Matrigel based assay

Question: With Cc1cc(=O)c2c(O)cc(O)c([C@@H]3O[C@H](CO)[C@@H](O)[C@H](O)[C@H]3O)c2o1 as the molecule, how does the inhibition read?
Answer: The inhibition was “Active”.

Question: How did the inhibition turn out when COc1cc(C2c3c(cc(OC)c(O)c3OC)CC(CO)C2COC2OCC(O)C(O)C2O)cc(OC)c1O (configuration not stated) was run?
Answer: The inhibition was “Active”.

Question: With Cc1c(O)cc2c(c1O)C(=O)[C@H](O)[C@@H](c1ccc(O)c(O)c1)O2 as the molecule, how does the inhibition read?
Answer: Its inhibition is “Active”.

Question: With C/C(=C\CO[C@@H]1O[C@H](CO)[C@@H](O)[C@H](O)[C@H]1O)C(O)CCC(C)(C)O (some centres not stated) as the molecule, how does the inhibition read?
Answer: Its inhibition is “Active”.

Question: O=C1C[C@@H](c2ccc(O)c(O)c2)Oc2cc(O[C@@H]3O[C@H](CO)[C@@H](O)[C@H](O)[C@H]3O)cc(O)c21 was tested. Which inhibition did it give?
Answer: Its inhibition is “Active”.

Question: COc1cc(O)cc(O)c1C(=O)c1ccc(O)c(O)c1 was tested. Which inhibition did it give?
Answer: Its inhibition is “Active”.

Tested on: MDA-MB-231
Conditions: Homo sapiens, 5 mg/kg
Description: Antitumor activity against GFP-expressing human MDA-MB-231 cells xenografted in SCID mouse assessed as reduction in tumor lung micro-metastasis at 5 mg/kg injected twice per week for 6 weeks

Question: Which inhibition does the source give for O=C(O)CC(CCc1ccccc1)O[C@H]1O[C@@H](CO)[C@H](O)[C@@H](O)[C@@H]1O (some centres not stated) here?
Answer: The inhibition was “Active”.
